Measured values from patent US20170079278A1 (priority 2015, published 2017).

What was measured:
[1] = system: Coquito (Cyperus rotundus); assay: Field trial atrazine +/- EPAC, weed control in corn; assay type: in vivo
[2] = system: Mycosphaerella fijiensis; assay: Sensitivity test of ascospores (germination, germ tube elongation) to azoxystrobin +/- EPAC-F; assay type: cell-based; settings: Black Sigatoka, banana crops
Protocol: In a study in experimental conditions the effectiveness of EPAC-F was evaluated by a sensitivity test to Mycosphaerella fijiensis (from a banana farm in Santa Marta), causal agent of Black Sigatoka, following the recommendations of the Fungicide Resistance Action Committee's (FRAC) to strobilurin fungicides from.
The test is based on measuring the length elongation ascospore germ tube that germinated in culture medium 2% agar, modified with a number of products made by mixing the adjuvant, EPAC-F and fungicide Liege 25 SC, whose active ingredient is Azoxystrobin 250 g/L. Then the following 11 treatments were evaluated are as follows:
T1. Azoxystrobin 25% SC 100 at a dose of 400 cc/Ha. T2. Azoxystrobin 25 SC 50% at doses of 400 cc/Ha.+EPAC 10% T3. Azoxystrobin 25 SC 50% at doses of 400 cc/Ha.+EPAC 20% T4. Azoxystrobin 25 SC 70% at doses of 400 cc/Ha.+EPAC 10% T5. Azoxystrobin 25 SC 60% at doses of 400 cc/Ha.+EPAC 10% T1A. Azoxystrobin SC 25 50% at doses of 200 cc/Ha.+EPAC5% T2A. Azoxystrobin SC 25 50% at doses of 200 cc/Ha.+10% EPAC T3A. Azoxystrobin SC 25 50% at doses of 200 cc/Ha.+15% EPAC T4A. Azoxystrobin SC 25 25% at doses of 200 cc/Ha.+10% EPAC T5A. Azoxystrobin SC 25 25% at doses of 200 cc/Ha.+15% EPAC
The control process involved the use of fungicide Amystar 50 WG with the active ingredient Azoxystrobin 500 g/L. This product is considered direct competition from […]. […]

[3] = system: Paja de Zorro (Leptochloa filiformis); assay: Field trial butachlor +/- EPAC, weed control; assay type: in vivo; settings: butachlor section
[4] = system: Coffe Borer Beetle; assay: Field trial chlorpyrifos +/- EPAC, pest control in coffee fields; assay type: in vivo
[5] = system: Paja de Zorro (Leptochloa filiformis); assay: Field trial clomazone +/- EPAC, weed control in rice fields; assay type: in vivo
[6] = system: White Fly (Aleyrodidae); assay: Field trial cypermethrin +/- EPAC, pest control in tomato crops; assay type: in vivo
[7] = system: Liendrepuerco (Echinochia Colonum); assay: Field trial glyphosate +/- EPAC, weed control in rice; assay type: in vivo; settings: A = 100% alone, B = reduced dose + EPAC
[8] = system: Cortadera (Cortaderia Selloana); assay: as above; assay type: in vivo; settings: A = 100% alone, B = reduced dose + EPAC
[9] = system: Piñita (Murdania Nudiflora); assay: as above; assay type: in vivo; settings: A = chemical alone at 100%, B = reduced dose + EPAC
[10] = system: Leptocloa; assay: as above; assay type: in vivo; settings: A = 100% alone, B = reduced dose + EPAC
[11] = system: Guardarocio (Digitaria Sanguinalis); assay: as above; assay type: in vivo; settings: A = 100% alone, B = reduced dose + EPAC
[12] = system: adult T. vaporariorum; White Fly (Aleyrodidae); assay: Methamidophos/EPAC-I on adult whitefly on tomato; assay type: in vivo, Trialeurodes vaporariorum; set-up: concentration or dose not given beside the values; settings: tomato crops
Protocol: The effectiveness of EPAC-I was assessed with adult T. vaporariorum under experimental conditions taking into account the percentage of mortality by direct and indirect contact with the insects.
The completion of the performance test EPAC-I with adults of T. vaporariorum was carried out directly on whitefly adults collected from breeding individuals in the “Bio-Systems Center”. These were placed in a box with mesh which allows passage of the droplets in the spray. Product application was performed with an airbrush at a distance of 30 cm and a 45° angle on the application unit, achieving a uniform coverage with fine droplets. The quality was verified through application of a strip (2×2 cm) of water-sensitive paper.
To assemble the test, from tomato plants we selected randomly 5 leaflets per treatment and then were sprayed and once dried, in each bags mesh were placed into which 10 adults whiteflies were placed, and each of these units was duly marked according to the assessed treatment. Tomato plants with the evaluation units were maintained in a room with controlled temperature (20±1° C.), relative humidity (70±10%) and photoperiod of 12 h. The evaluation design was completely randomized and readings from day one after application to day 10 were performed.

[13] = system: Bledo (Amaranthus Albus); assay: Field trial oxadiazone +/- EPAC, weed control in rice fields; assay type: in vivo
[14] = system: Corn; assay: Field trial paraquat +/- EPAC, crop dissecation; assay type: in vivo; settings: A = 100% alone, B = 40% + EPAC 4%
[15] = system: Falsa Caminadora (Ischaemum rugosum); assay: Field trial pendimethalin +/- EPAC, weed control in rice fields; assay type: in vivo
[16] = system: White Fly (Aleyrodidae); assay: Field trial profenophos +/- EPAC, pest control in tomato crops; assay type: in vivo

CCNc1nc(Cl)nc(NC(C)C)n1 [Atrazine]
% of Weeds Controlled ([1]; 7 Days): 93% | % of Weeds Controlled ([1]; 14 Days): 90% | % of Weeds Controlled ([1]; 21 Days): 90%

CO/C=C(\C(=O)OC)c1ccccc1Oc1cc(Oc2ccccc2C#N)ncn1 [Axozystrobin]
Fungus Inhibition: % Ascospore Germination Inhibited [2]: 24% | Fungus Inhibition: % Ascospore elongation Inhibition (>150 microm) [2]: 37%

CCCCOCN(C(=O)CCl)c1c(CC)cccc1CC [Butachlor]
% of Weeds Controlled ([3]; 3 Days): 93% | % of Weeds Controlled ([3]; 8 Days): 100% | % of Weeds Controlled ([3]; 15 Days): 100%

CCOP(=S)(OCC)Oc1nc(Cl)c(Cl)cc1Cl [Chlorpyrifos]
% of Pest Controlled ([4]; 7 Days): 88% | % of Pest Controlled ([4]; 14 Days): 83% | % of Pest Controlled ([4]; 21 Days): 73%

CC1(C)CON(Cc2ccccc2Cl)C1=O [Clomazone]
% of Weeds Controlled ([5]; 3 Days): 97% | % of Weeds Controlled ([5]; 8 Days): 93% | % of Weeds Controlled ([5]; 15 Days): 100%

CC1(C)C(C=C(Cl)Cl)C1C(=O)OC(C#N)c1cccc(Oc2ccccc2)c1 (stereo not shown) [Cypermethrin]
% of Pest Controlled ([6]; 3 Days): 90% | % of Pest Controlled ([6]; 8 Days): 87% | % of Pest Controlled ([6]; 15 Days): 76%

O=C(O)CNCP(=O)(O)O [Glyphosate, N-phosphonomethyl-glycine]
% of Weeds Controlled [7]: 93% | % of Weeds Controlled [8]: 90% | % of Weeds Controlled [9]: 83% | % of Weeds Controlled [10]: 100% | % of Weeds Controlled [11]: 82%

COP(N)(=O)SC (stereo not shown) [Metamidhophos, O, S-dimethyl-phosphoramidothioate]
% of Pest Controlled ([12]; 1 Day): 10% | % of Pest Controlled ([12]; 4 Days): 30% | % of Pest Controlled ([12]; 6 Days): 42% | % of Pest Controlled ([12]; 8 Days): 46% | % of Pest Controlled ([12]; 10 Days): 50%

CC(C)Oc1cc(-n2nc(C(C)(C)C)oc2=O)c(Cl)cc1Cl [Oxadiazone]
% of Weeds Controlled ([13]; 3 Days): 87% | % of Weeds Controlled ([13]; 8 Days): 97% | % of Weeds Controlled ([13]; 15 Days): 100%

C[n+]1ccc(-c2cc[n+](C)cc2)cc1 [Paraquat]
% of Crop Dissecated [14]: 100%

CCC(CC)Nc1c([N+](=O)[O-])cc(C)c(C)c1[N+](=O)[O-] [Pendimenthaline]
% of Weeds Controlled ([15]; 3 Days): 86.7% | % of Weeds Controlled ([15]; 8 Days): 96.7% | % of Weeds Controlled ([15]; 15 Days): 93%

CCCSP(=O)(OCC)Oc1ccc(Br)cc1Cl (stereo not shown) [Profenophos]
% of Pest Controlled ([16]; 7 Days): 92% | % of Pest Controlled ([16]; 12 Days): 82% | % of Pest Controlled ([16]; 15 Days): 75%
